Measured values published in ChEMBL document CHEMBL5038640, “Natural Berberine-derived Azolyl Ethanols as New Structural Antibacterial Agents against Drug-Resistant Escherichia coli” (J Med Chem, 2022).
≈ marks a conversion by molar mass, not a printed value. Calls of active or inactive are those of the source. No cut-off for these calls is given here.

Legend:
Cell membrane [1] = experiment: Induction of membrane depolarization in Escherichia coli at 0.006 to 0.096 mM incubated for 6 hrs by DiSC35 dye-based fluorescence assay; format: subcellular; settings: dose 0.006-0.096 mM
Calf thymus DNA = experiment: Binding affinity to calf thymus DNA assessed as red shift in absorption spectra at pH 7.4 by UV-vis absorption spectroscopy; format: nucleic-acid assay; settings: Bos taurus
Cell membrane [2] = experiment: Induction of membrane disruption in Escherichia coli at 2 times of MIC incubated for 6 hrs by DAPI staining and propidium iodide staining based fluorescence assay; format: subcellular
Pseudomonas aeruginosa [3] = experiment: Antibacterial activity against Pseudomonas aeruginosa assessed as decrease in bacterial growth incubated for 18 hrs by broth microdilution method; format: functional
Staphylococcus aureus [4] = experiment: Antibacterial activity against Staphylococcus aureus assessed as decrease in bacterial growth incubated for 18 hrs by broth microdilution method; format: functional
Staphylococcus aureus [5] = experiment: Antibacterial activity against methicillin-resistant Staphylococcus aureus N315 assessed as decrease in bacterial growth incubated for 18 hrs by broth microdilution method; format: functional
[6] = Aqueous solubility of the compound in saline; format: physicochemical
Escherichia coli [7] = experiment: Biofilm disruption activity in Escherichia coli assessed as mass loss of biofilm upto 0.096 mM incubated for 24 hrs by crystal violet staining based assay; format: functional, organism-based; settings: dose mM <=0.096, time 24.0 hrs
Escherichia coli [8] = experiment: Antibacterial activity against Escherichia coli assessed as decrease in bacterial growth incubated for 18 hrs by broth microdilution method; format: functional
Escherichia coli [9] = experiment: Biofilm disruption activity in Escherichia coli at MIC incubated for 24 hrs by crystal violet staining based assay; format: functional; settings: dose 0.007 mM
Escherichia coli [10] = experiment: Antibacterial activity against Escherichia coli ATCC 25922 assessed as decrease in bacterial growth incubated for 18 hrs by broth microdilution method; format: functional
Staphylococcus aureus [11] = experiment: Antibacterial activity against Staphylococcus aureus ATCC 29213 assessed as decrease in bacterial growth incubated for 18 hrs by broth microdilution method; format: functional
Cell membrane [12] = experiment: Induction of cell membrane disruption in Escherichia coli assessed as increase in protein leakage upto 0.192 mM by Bradford assay; format: subcellular; settings: dose mM <=0.192
Cell membrane [13] = experiment: Induction of outer membrane permeabilization in Escherichia coli assessed as increase in fluorescence intensity at MIC incubated for 6 hrs by NPN-dye based fluorescence assay; format: subcellular
[14] = Cytotoxicity against human FHC cells assessed as cell viability upto 0.100 mM incubated for 24 hrs by MTT assay; format: toxicity, cell-based; settings: read-out: Activity
Klebsiella pneumoniae = experiment: Antibacterial activity against Klebsiella pneumoniae assessed as decrease in bacterial growth incubated for 18 hrs by broth microdilution method; format: functional
Escherichia coli [15] = experiment: Antibacterial activity against Escherichia coli assessed as reduction in metabolic activity in presence of resazurin measured after 6 hrs by alamar blue assay; format: functional, organism-based
A549 = experiment: Cytotoxicity against human A549 cells assessed as cell viability upto 0.100 mM incubated for 24 hrs by MTT assay; format: functional, cell-based; settings: dose mM <=0.100, time 24.0 hrs
Escherichia coli [16] = experiment: Induction of bacterial resistance in Escherichia coli assessed as fold increase in MIC measured after 16 days by resistance development assay; format: functional; settings: time 16.0 day
Staphylococcus aureus [17] = experiment: Antibacterial activity against Staphylococcus aureus ATCC 25923 assessed as decrease in bacterial growth incubated for 18 hrs by broth microdilution method; format: functional
Cell membrane [18] = experiment: Induction of cell membrane disruption in Escherichia coli assessed as increase in protein leakage upto 0.224 mM by Bradford assay; format: subcellular; settings: dose mM <=0.224
Escherichia coli [19] = experiment: Bactericidal activity against Escherichia coli assessed as reduction in colony formation at 8 times MIC measured after upto 6 hrs by time kill assay; format: functional, organism-based; settings: time hrs <=6
Escherichia coli [20] = experiment: Induction of bacterial resistance in Escherichia coli assessed as change in MIC measured after 16 days by resistance development assay; format: functional; settings: time 16.0 day
Cell membrane [21] = experiment: Induction of Inner membrane permeabilization in Escherichia coli assessed as increase in fluorescence intensity at MIC incubated for 6 hrs by PI staining based assay; format: subcellular
Acinetobacter baumannii = experiment: Antibacterial activity against Acinetobacter baumannii assessed as decrease in bacterial growth incubated for 18 hrs by broth microdilution method; format: functional
Pseudomonas aeruginosa [22] = experiment: Antibacterial activity against Pseudomonas aeruginosa ATCC 27853 assessed as decrease in bacterial growth incubated for 18 hrs by broth microdilution method; format: functional
Escherichia coli [23] = experiment: Biofilm disruption activity in Escherichia coli assessed as reduction in exo-polysaccharide incubated for 24 hrs by crystal violet staining based assay; format: functional, organism-based
Enterococcus faecalis = experiment: Antibacterial activity against Enterococcus faecalis assessed as decrease in bacterial growth incubated for 18 hrs by broth microdilution method; format: functional
Escherichia coli [24] = experiment: Anti-bioflim activity against Escherichia coli assessed as inhibition of bioflim formation at MIC incubated for 24 hrs followed by compound washout by crystal violet staining based assay; format: functional
[25] = Hemolytic activity against human RBC assessed as 50% hemolysis measured upto 64 times of MIC after 1 to 8 hr; format: toxicity, cell-based; settings: erythrocyte, time 1-8 hrs
[26] = Cytotoxicity against human PNT1A cells assessed as cell viability upto 0.100 mM incubated for 24 hrs by MTT assay; format: toxicity, cell-based; settings: read-out: Activity
DNA = experiment: Competitive binding affinity to Escherichia coli DNA assessed as DNA intercalation by AO staining based assay; format: nucleic-acid assay
Escherichia coli [27] = experiment: Induction of intracellular ROS production in Escherichia coli assessed as increase in ROS accumulation at 0.006 to 0.192 mM incubated for 6 hrs by DCFH-DA assay; format: functional, organism-based; settings: dose 0.006-0.192 mM
Escherichia coli [28] = experiment: Induction of intracellular ROS production in Escherichia coli assessed as increase in ROS accumulation at 0.007 to 0.224 mM incubated for 6 hrs by DCFH-DA assay; format: functional, organism-based; settings: dose 0.007-0.224 mM
Cell membrane [29] = experiment: Induction of membrane depolarization in Escherichia coli at 0.007 to 0.112 mM incubated for 6 hrs by DiSC35 dye-based fluorescence assay; format: subcellular; settings: dose 0.007-0.112 mM
Escherichia coli [30] = experiment: Biofilm disruption activity in Escherichia coli assessed as mass loss of biofilm upto 0.112 mM incubated for 24 hrs by crystal violet staining based assay; format: functional, organism-based; settings: dose mM <=0.112, time 24.0 hrs

Q: Which Activity (Cell membrane [1]) does the source give for COc1ccc2cc3[n+](cc2c1OCC(O)CSc1nc2ccccc2s1)CCc1cc2c(cc1-3)OCO2.[Br-] (stereo not drawn) here?
A: Active

Q: What about the Activity (Calf thymus DNA) of the same compound?
A: Active

Q: And the Activity (Cell membrane [2])?
A: Active

Q: And the MIC (Pseudomonas aeruginosa [3])?
A: 102 µM

Q: And the MIC (Staphylococcus aureus [4])?
A: 51 µM

Q: And the MIC (Staphylococcus aureus [5])?
A: 6 µM

Q: And the solubility [6]?
A: 770 µM

Q: What about the Activity (Escherichia coli [7]) of the same compound?
A: Dose-Dependent Effect

Q: What about the MIC (Escherichia coli [8]) of the same compound?
A: 6 µM

Q: And the Activity (Escherichia coli [9])?
A: 15%

Q: What about the MIC (Escherichia coli [10]) of the same compound?
A: 51 µM

Q: And the MIC (Staphylococcus aureus [11])?
A: 51 µM

Q: What about the Activity (Cell membrane [12]) of the same compound?
A: Active

Q: What about the Activity (Cell membrane [13]) of the same compound?
A: Active

Q: What about the viability at 24 h [14] of the same compound?
A: 70%

Q: What about the MIC (Klebsiella pneumoniae) of the same compound?
A: 13 µM

Q: And the Activity (Escherichia coli [15])?
A: Active

Q: What about the Activity (A549) of the same compound?
A: inactive

Q: What about the Activity (Escherichia coli [16]) of the same compound?
A: inactive

Q: And the MIC (Staphylococcus aureus [17])?
A: 13 µM

Q: And the Activity (Cell membrane [18])?
A: Active

Q: What about the Activity (Escherichia coli [19]) of the same compound?
A: Active

Q: What about the Activity (Escherichia coli [20]) of the same compound?
A: inactive

Q: And the Activity (Cell membrane [21])?
A: Active

Q: And the MIC (Acinetobacter baumannii)?
A: 26 µM

Q: And the MIC (Pseudomonas aeruginosa [22])?
A: 51 µM

Q: And the Activity (Escherichia coli [23])?
A: Active

Q: What about the MIC (Enterococcus faecalis) of the same compound?
A: 51 µM

Q: What about the “inhibition (INH)” value (Escherichia coli [24]) of the same compound?
A: 21.87%

Q: What about the Activity [25] of the same compound?
A: Non-Toxic

Q: What about the viability at 24 h [26] of the same compound?
A: 70%

Q: And the Activity (DNA)?
A: Active

Q: What about the Activity (Escherichia coli [27]) of the same compound?
A: Active

Q: For CCn1cc(C(=O)O)c(=O)c2cc(F)c(N3CCNCC3)cc21 [NORFLOXACIN], which MIC (Pseudomonas aeruginosa [3]) is on record?
A: 25 µM (≈ 7.98 µg/mL)

Q: What about the MIC (Staphylococcus aureus [4]) of the same compound?
A: 2 µM (≈ 0.639 µg/mL)

Q: What about the MIC (Staphylococcus aureus [5]) of the same compound?
A: 25 µM (≈ 7.98 µg/mL)

Q: And the MIC (Escherichia coli [8])?
A: 13 µM (≈ 4.15 µg/mL)

Q: What about the MIC (Escherichia coli [10]) of the same compound?
A: 13 µM (≈ 4.15 µg/mL)

Q: And the MIC (Staphylococcus aureus [11])?
A: 100 µM (≈ 31.9 µg/mL)

Q: What about the MIC (Klebsiella pneumoniae) of the same compound?
A: 6 µM (≈ 1.92 µg/mL)

Q: And the fold change (FC) (Escherichia coli [16])?
A: 64

Q: And the MIC (Staphylococcus aureus [17])?
A: 13 µM (≈ 4.15 µg/mL)

Q: And the MIC (Acinetobacter baumannii)?
A: 6 µM (≈ 1.92 µg/mL)

Q: And the MIC (Pseudomonas aeruginosa [22])?
A: 200 µM (≈ 63.9 µg/mL)

Q: And the MIC (Enterococcus faecalis)?
A: 6 µM (≈ 1.92 µg/mL)

Q: For COc1ccc2cc3[n+](cc2c1OCC(O)Cn1c([N+](=O)[O-])cnc1C)CCc1cc2c(cc1-3)OCO2.[Br-] (stereo not drawn), which Activity (Calf thymus DNA) is on record?
A: Active

Q: What about the Activity (Cell membrane [2]) of the same compound?
A: Active

Q: And the MIC (Pseudomonas aeruginosa [3])?
A: 55 µM

Q: What about the MIC (Staphylococcus aureus [4]) of the same compound?
A: 109 µM

Q: And the MIC (Staphylococcus aureus [5])?
A: 14 µM

Q: What about the solubility [6] of the same compound?
A: 908 µM

Q: What about the MIC (Escherichia coli [8]) of the same compound?
A: 7 µM

Q: And the Activity (Escherichia coli [9])?
A: 40%

Q: What about the MIC (Escherichia coli [10]) of the same compound?
A: 55 µM

Q: What about the MIC (Staphylococcus aureus [11]) of the same compound?
A: 55 µM

Q: What about the Activity (Cell membrane [12]) of the same compound?
A: Active

Q: What about the Activity (Cell membrane [13]) of the same compound?
A: Active

Q: And the viability at 24 h [14]?
A: 70%

Q: And the MIC (Klebsiella pneumoniae)?
A: 27 µM

Q: And the Activity (Escherichia coli [15])?
A: Active

Q: What about the Activity (A549) of the same compound?
A: inactive

Q: And the Activity (Escherichia coli [16])?
A: inactive

Q: What about the Activity (Escherichia coli [28]) of the same compound?
A: Active

Q: And the MIC (Staphylococcus aureus [17])?
A: 55 µM

Q: And the Activity (Cell membrane [29])?
A: Active

Q: What about the Activity (Cell membrane [18]) of the same compound?
A: Active

Q: And the Activity (Escherichia coli [19])?
A: Active

Q: What about the Activity (Escherichia coli [30]) of the same compound?
A: Dose-Dependent Effect

Q: And the Activity (Escherichia coli [20])?
A: inactive

Q: What about the Activity (Cell membrane [21]) of the same compound?
A: Active

Q: And the MIC (Acinetobacter baumannii)?
A: 14 µM

Q: What about the MIC (Pseudomonas aeruginosa [22]) of the same compound?
A: 55 µM

Q: And the Activity (Escherichia coli [23])?
A: Active

Q: And the MIC (Enterococcus faecalis)?
A: 14 µM

Q: And the “inhibition (INH)” value (Escherichia coli [24])?
A: 28.25%

Q: And the Activity [25]?
A: Non-Toxic

Q: And the viability at 24 h [26]?
A: 70%

Q: And the Activity (DNA)?
A: Active
